Experiments:
S. pneumoniae = assay: Biological activity against bacterial strains: S. pneumoniae; assay type: cell-based, Streptococcus pneumoniae; design: Biological Activity, S. pneumoniae ATCC6301 / Biological Activity, S. pneumoniae ATCC700671 / Biological Activity, S. pneumoniae ATCC700676* / Biological Activity, S. pneumoniae ATCC700677* / Biological Activity, S. pneumoniae ATCC700905* / Biological Activity, S. pneumoniae ATCC700906* / Biological Activity, S. pneumoniae ATCC49619: unit not given here; conditions: for Biological Activity, S. pneumoniae ATCC6301: strain ATCC6301; for Biological Activity, S. pneumoniae ATCC49619: strain ATCC49619; for Biological Activity, S. pneumoniae ATCC700671: strain ATCC700671; for Biological Activity, S. pneumoniae ATCC700676*: strain ATCC700676, macrolide resistant strain; for Biological Activity, S. pneumoniae ATCC700677*: strain ATCC700677, macrolide resistant strain; for Biological Activity, S. pneumoniae ATCC700905*: strain ATCC700905, macrolide resistant strain; for Biological Activity, S. pneumoniae ATCC700906*: strain ATCC700906, macrolide resistant strain
S. aureus = assay: Biological activity against bacterial strains: S. aureus; assay type: cell-based, Staphylococcus aureus; design: unit not given here; conditions: for Biological Activity, S. aureus ATCC6538p: strain ATCC6538p; for Biological Activity, S. aureus ATCC14154*: strain ATCC14154, macrolide resistant strain; for Biological Activity, S. aureus ATCC29213: strain ATCC29213; for Biological Activity, S. aureus ATCC33591*: strain ATCC33591, macrolide resistant strain; for Biological Activity, S. aureus ATCCBAA-39*: strain ATCCBAA-39, macrolide resistant strain; for Biological Activity, S. aureus ATCCBAA-44*: strain ATCCBAA-44, macrolide resistant strain
S. epidermidis = assay: Biological activity against bacterial strains: S. epidermidis; assay type: cell-based, Staphylococcus epidermidis; conditions: strain ATCC12228
E. faecalis = assay: Biological activity against bacterial strains: E. faecalis; assay type: cell-based, Enterococcus faecalis; conditions: strain ATCC51575

| SMILES | Biological Activity, S. pneumoniae ATCC6301 (S. pneumoniae) | Biological Activity, S. pneumoniae ATCC49619 (S. pneumoniae) | Biological Activity, S. pneumoniae ATCC700671 (S. pneumoniae) | Biological Activity, S. pneumoniae ATCC700676* (S. pneumoniae) | Biological Activity, S. pneumoniae ATCC700677* (S. pneumoniae) | Biological Activity, S. pneumoniae ATCC700905* (S. pneumoniae) | Biological Activity, S. pneumoniae ATCC700906* (S. pneumoniae) | Biological Activity, S. aureus ATCC6538p (S. aureus) | Biological Activity, S. aureus ATCC14154* (S. aureus) | Biological Activity, S. aureus ATCC29213 (S. aureus) | Biological Activity, S. aureus ATCC33591* (S. aureus) | Biological Activity, S. aureus ATCCBAA-39* (S. aureus) | Biological Activity, S. aureus ATCCBAA-44* (S. aureus) | Biological Activity, S. epidermidis ATCC12228 (S. epidermidis) | Biological Activity, E. faecalis ATCC51575 (E. faecalis) |
| --- | --- | --- | --- | --- | --- | --- | --- | --- | --- | --- | --- | --- | --- | --- | --- |
| CC[C@H]1OC(=O)C[C@@H](O)[C@H](C)[C@@H](OC2OC(C)C(O)C(N(C)C)C2O)[C@@H](CC=O)C[C@@H](C)C(=N/OCc2ccc(F)cc2)/C=C/C(C)=C/C1CO (stereo partly drawn) [Compound IId] | 0.025 | 0.2 | 0.2 | 0.025 | 1.56 | 0.2 | >12.5 | 0.39 | 1.56 | 1.56 | >12.5 | >12.5 | >12.5 | 0.78 | >12.5 |
| CCC1OC(=O)CC(O)C(C)C(OC2OC(C)C(O)C(N(C)C)C2O)C(CCN2CC(C)CC(C)C2)CC(C)C(=NOCc2ccc(F)cc2)C=CC(C)=CC1COC1OC(C)C(O)C(OC)C1OC (single isomer, unassigned) [Compound Q] | 0.20 | 0.39 | 0.39 | 0.78 | 6.25 | 0.78 | 12.5 | 0.20 | 0.78 | 0.78 | 12.5 | >12.5 | >12.5 | 0.78 | >12.5 |
| CCC1OC(=O)CC(O)C(C)C(OC2OC(C)C(O)C(N(C)C)C2O)C(CC=O)CC(C)C(=NOCC(=O)N2CCN(c3ccccc3)CC2)C=CC(C)=CC1CO (stereo not drawn) [Compound C] | 0.025 | 0.01 | 0.025 | 0.39 | 6.25 | 0.20 | >12.5 | 0.78 | 1.56 | 1.56 | >12.5 | >12.5 | >12.5 | 0.20 | >12.5 |
| CC[C@H]1OC(=O)C[C@@H](O)[C@H](C)[C@@H](O[C@@H]2O[C@H](C)[C@@H](O[C@H]3C[C@@](C)(O)[C@@H](O)[C@H](C)O3)[C@H](N(C)C)[C@H]2O)[C@@H](CC=O)C[C@@H](C)C(=O)/C=C/C(C)=C/[C@@H]1CO[C@@H]1O[C@H](C)[C@@H](O)[C@@H](OC)[C@H]1OC [Tyl, tylosin, reference compound] | 0.098 | 0.098 | 0.20 | 0.20 | >12.5 | 0.20 | >12.5 | 0.20 | 1.56 | 1.56 | >12.5 | >12.5 | >12.5 | 0.39 | >12.5 |
| CCC1OC(=O)CC(O)C(C)C(OC2OC(C)C(O)C(N(C)C)C2O)C(CCN2CC(C)CC(C)C2)CC(C)C(=NOCCCCOc2ccc3ncccc3c2)C=CC(C)=CC1COC1OC(C)C(O)C(OC)C1OC (single isomer, unassigned) [Compound M] | 0.01 | 0.01 | 0.01 | 1.56 | 6.25 | 1.56 | >12.5 | 0.78 | 1.56 | 1.56 | >12.5 | >12.5 | >12.5 | 1.56 | >12.5 |
| CC[C@H]1OC(=O)C[C@@H](O)[C@H](C)[C@@H](O[C@@H]2O[C@H](C)[C@@H](O)[C@H](N(C)C)[C@H]2O)[C@@H](CCN2C[C@H](C)C[C@H](C)C2)C[C@@H](C)C(=O)/C=C/C(C)=C/[C@@H]1CO[C@@H]1O[C@H](C)[C@@H](O)[C@@H](OC)[C@H]1OC [Tilm, tilmicosin, reference compound] | 0.39 | 1.56 | 0.78 | 0.78 | 6.25 | 1.56 | >12.5 | 0.098 | 0.39 | 0.20 | >12.5 | >12.5 | >12.5 | 0.098 | >12.5 |
| CCC1OC(=O)CC(O)C(C)C(OC2OC(C)C(O)C(N(C)C)C2O)C(CC=O)CC(C)C(=NOCCCOc2ccc3ncccc3c2)C=CC(C)=CC1COC1OC(C)C(O)C(OC)C1OC (single isomer, unassigned) [Compound AA] | 0.025 | 6.25 | >12.5 | 0.049 | 6.25 | 6.25 | >12.5 | 0.39 | 0.78 | 0.78 | >12.5 | >12.5 | >12.5 | 0.78 | >12.5 |
| CCC1OC(=O)CC(O)C(C)C(OC2OC(C)C(O)C(N(C)C)C2O)C(CCN2CC(C)CC(C)C2)CC(C)C(=NOCCCCOc2ccc3ncccc3c2)C=CC(C)=CC1COC1OC(C)C(O)C(OC)C1OC (single isomer, unassigned) [Compound N] | 0.025 | 0.098 | 0.049 | 1.56 | 6.25 | 0.78 | >12.5 | 0.78 | 1.56 | 3.12 | >12.5 | >12.5 | >12.5 | 3.12 | >12.5 |

Reference: patent US7247617B2, “Sixteen-member macrolide antiinfective agents” (Kosan Biosciences Incorporated, priority 2004, dated 2007)
